According to patent US20240335462A1, “SULFUR/PHOSPHORUS-CONTAINING ARYL COMPOUND AND APPLICATION THEREOF” (MEDSHINE DISCOVERY INC., priority 2021, published 2024):

Assays:
[1] = biological target: TYK2 JH2 pseudokinase (Homo sapiens, UniProt P29597); test: Inhibitory activity on TYK2 JH2 pseudokinase (TR-FRET); type: binding; conditions: 60 min room temperature, read-out: Kinase half maximal inhibitory concentration IC50 TYK2 JH2
Method: In this experiment, the inhibitory effect of compounds on TYK2 JH2 pseudokinase was tested using the method of time-resolved fluorescence resonance energy transfer (TR-FRET). In the experiment, TYK2 JH2 or JAK1 JH2 pseudokinase can simultaneously bind to fluorescently labeled Tracer and Tb antibody to form a “sandwich structure”. Tb antibody, functioning as a fluorescent donor, produces fluorescence at a wavelength of 495 nm under the excitation of light at a specific wavelength. Tracer, functioning as a fluorescent acceptor, can receive fluorescence at a wavelength of 495 nm and thus produce fluorescence at a wavelength of 520 nm, i.e., a time-resolved fluorescence resonance energy transfer (TR-FRET) signal, only when it is within the “sandwich structure”, i.e., when it is sufficiently close to Tb antibody. When the compound is added to compete with Tracer for binding to the pseudokinase, the binding of Tracer decreases, leading to a weakened TR-FRET signal. The inhibitory activity of the compound binding to the pseudokinase can be reflected by the ratio of signal values at 520 nm/495 nm.
The working solution consists of the following components: HEPES (pH 7.5) at a final concentration of 20 mM; MgCl2 at a final concentration of 10 mM; Brij-35 at a final concentration of 0.015%; DTT at a final concentration of 2 mM; and BSA at a final concentration of 50 μg/mL.
• a) The compound was dissolved in DMSO to achieve a storage concentration of 10 mM. • b) Various concentrations of the compound, 200 times the final concentration, were prepared in a compound dilution plate and transferred to an Echo plate. • c) The Echo instrument was used to transfer 150 nL of the compound from the Echo plate to a 384-well experimental plate. • d) 5 μL of TYK2 JH2 kinase, at three times the final concentration, was added to the 384-well experimental plate. • e) 5 μL of Tb, at three times the final concentration, was added to the 384-well experimental plate. • f) 5 μL of Tracer, at three times the final concentration, was added to the 384-well experimental plate. • g) The plate was centrifuged for 30 seconds and then incubated at room temperature for 60 minutes. • h) The fluorescence signal values at 520 nm/495 nm were measured using an Envision plate reader (PerkinElmer).
Data analysis was performed using the XL-Fit software to determine the IC50 of the compounds.

[2] = tested on: TYK2 signaling pathway (IFN-α/pSTAT1); test: IFN-α-stimulated pSTAT1 in human PBMC (flow cytometry); type: cell-based; conditions: CD4-positive cells
Method: The purpose of this experiment was to detect the inhibitory effect of the compounds on cytokine-activated JAK-STAT signaling pathways in human peripheral blood mononuclear cells (PBMC).
• a) PBMCs frozen in liquid nitrogen were thawed in a 37° C. water bath, and culture medium was added. The mixture was then centrifuged at 320 g for 3 minutes. • b) Cells were resuspended in culture medium, counted, and the cell concentration was adjusted to 5×10^5 cells/mL with culture medium. Subsequently, the cell suspension was inoculated into […] 96-well round-bottom plates, with 200 μL per well. The plates were incubated at 37° C. with 5% CO2 for 90 minutes. • c) Different concentrations of the test compound (starting at 2 μM, 5-fold serial dilution, a total of 8 concentrations) were added, followed by incubation at 37° C. with 5% CO2 for 30 minutes. • d) IL-6 (final concentration at 20 ng/mL) was added to the first round-bottom plate and incubated at 37° C. with 5% CO2 for 15 minutes. • e) IFNα (final concentration at 1000 U/mL) was added to the second round-bottom plate and incubated at 37° C. with 5% CO2 for 15 minutes. • f) IL-2 (final concentration at 4 ng/mL) was added to the third round-bottom plate and incubated at 37° C. with 5% CO2 for 15 minutes. • g) GM-CSF (final concentration at […]) was added to the fourth round-bottom plate and incubated at 37° C. with 5% CO2 for 15 minutes. • h) Cells were centrifuged at 320 g for 3 minutes, and each well was washed once with 200 μL of staining solution. • i) 50 μL of staining solution containing human CD33 antibody was added to each well of the GM-CSF-stimulated culture plate, and 50 μL of staining solution containing CD4 antibody was added to the remaining three culture plates. The staining was performed at 4° C. for 30 minutes. The cells were washed twice with the staining solution. • j) 100 μL of fixation buffer was added to each well, and the cells were fixed at 4° C. for 15 minutes. The cells were washed once with the staining solution. • k) 100 μL of permeabilization buffer was added to each well, and the cells were permeabilized at 4° C. for 20 minutes. The cells were washed twice with the staining solution. • l) 50 μL of staining solution containing human pSTAT1 antibody was added to each well of the IL-6 and IFN-α-stimulated culture plates, and 50 μL of staining solution containing human pSTAT5 antibody was added to each well of the IL-2 and GM-CSF-stimulated culture plates. The staining was performed at room temperature for 15 minutes. The cells were washed twice with the staining solution. • m) The cells were resuspended in 150 μL of staining solution. • n) The fluorescence intensity of pSTAT1 (stimulated by IL-6 and IFN-α) or pSTAT5 (stimulated by IL-2) in CD4-positive cells was detected using flow cytometer. The fluorescence intensity of pSTAT5 (stimulated by GM-CSF) in CD33-positive cells was also detected.
Data analysis was performed using Flowjo software to determine the IC50 of the compounds.

Chain of TYK2 JH2 pseudokinase (P29597 589-875 limits assumed): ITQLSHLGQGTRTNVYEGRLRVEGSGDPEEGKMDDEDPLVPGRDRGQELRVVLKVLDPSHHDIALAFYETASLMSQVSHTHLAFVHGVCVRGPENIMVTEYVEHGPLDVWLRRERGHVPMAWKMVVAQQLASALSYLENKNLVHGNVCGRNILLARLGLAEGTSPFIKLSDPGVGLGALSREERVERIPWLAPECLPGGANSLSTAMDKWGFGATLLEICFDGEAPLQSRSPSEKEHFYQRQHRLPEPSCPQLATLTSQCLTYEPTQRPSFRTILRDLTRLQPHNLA

CNC(=O)c1nnc(NC(=O)C2CC2)cc1Nc1cccc(-c2ncc(S(=N)(=O)C(C)C)cn2)c1OC (single isomer, unassigned) [WX-011A]
IC50 [1]: 0.1 nM | IC50 [2]: 2.6 nM

CNC(=O)c1nnc(NC(=O)C2CC2)cc1Nc1cccc(-c2ncc(S(=N)(=O)C(C)C)cn2)c1OC (single isomer, unassigned) [WX-011B]
IC50 [1]: 0.08 nM | IC50 [2]: 2.4 nM

CNC(=O)c1nnc(NC(=O)C2CC2)cc1Nc1cccc(-c2ccc(S(=N)(=O)C(C)C)cn2)c1OC (single isomer, unassigned) [WX-012A]
IC50 [1]: 0.08 nM | IC50 [2]: 2 nM

CNC(=O)c1nnc(NC(=O)C2CC2)cc1Nc1cccc(-c2ccc(S(=N)(=O)C(C)C)cn2)c1OC (single isomer, unassigned) [WX-012B]
IC50 [1]: 0.08 nM | IC50 [2]: 1.5 nM

CNC(=O)c1cnc(NC(=O)C2CC2)cc1Nc1cccc(-c2ccc(S(=O)(=O)C(C)C)cn2)c1OC.Cl [Hydrochloride of WX-020]
IC50 [1]: 0.08 nM | IC50 [2]: 1.3 nM

CNC(=O)c1cnc(NC(=O)C2CC2)cc1Nc1cccc(-c2ncc(S(=O)(=O)C(C)C)cn2)c1OC [WX-019]
IC50 [1]: 0.09 nM | IC50 [2]: 1.5 nM

CNC(=O)c1nnc(NC(=O)C2CC2)cc1Nc1cccc(-c2ccc(P(=O)(C3CC3)C3CC3)cn2)c1OC [WX-021]
IC50 [1]: 0.08 nM | IC50 [2]: 2.1 nM
